The record followed here is US8202857B2, “1,3-oxazepan-2-one and 1,3-diazepan-2-one inhibitors of 11β-hydroxysteroid dehydrogenase 1” (Vitae Pharmaceuticals, Inc., priority 2008, dated 2012).

The target in the test is T1, human 11β-HSD1 (Homo sapiens, UniProt P28845).
T1 construct: expressed in transfected cells; host or cells: CHO cells (microsomes)
Kind of test: Inhibition of a microsomal preparation of 11β-HSD1 (SPA), Biological Test Example 1. Type of test: biochemical. As to conditions: microsomes from CHO cells overexpressing human 11β-HSD1; for IC50: read-out: IC50 Range^a; for inhibition at 0.1 µM: read-out: Average % inhibition at 100 nM, 100 nM; for Average % inhibition at 100 nM: 0.1 µM. As for the experimental part: All reactions were carried out at rt in 96 well clear flexible PET Microbeta plates (PerkinElmer). […] After a 10 minute pre-incubation, 50 μL of enzyme solution containing microsomes isolated from CHO cells overexpressing human 11β-HSD1 (10-20 μg/ml of total protein) was added, and the plates were incubated for 90 minutes at rt. The reaction was stopped by adding 50 μl of the SPA beads suspension containing 10 μM 18β-glycyrrhetinic acid, 5 mg/ml protein A coated YSi SPA beads (GE Healthcare) and 3.3 μg/ml of anti-cortisol antibody (East Coast Biologics) in Superblock buffer (Bio-Rad). The plates were shaken for 120 minutes at rt, and the SPA signal corresponding to [^3H]cortisol was measured on a Microbeta plate reader.

T1 sequence (P28845 whole entry): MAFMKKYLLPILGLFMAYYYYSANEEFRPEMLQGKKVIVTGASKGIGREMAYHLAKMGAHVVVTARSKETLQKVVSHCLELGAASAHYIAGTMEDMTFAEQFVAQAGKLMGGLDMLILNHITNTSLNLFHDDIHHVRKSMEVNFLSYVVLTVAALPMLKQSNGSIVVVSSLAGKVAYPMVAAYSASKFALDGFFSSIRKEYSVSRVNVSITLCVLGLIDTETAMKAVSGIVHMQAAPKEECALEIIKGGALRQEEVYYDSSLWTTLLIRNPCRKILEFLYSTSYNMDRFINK

The IC50 is the concentration that inhibits the measured activity by half. A word on the inhibition: it is the change of the read-out against control, counted positive when it falls. Turning to `C=CC[C@]1(c2ccccc2)CCCN([C@@H](C)c2ccc(Br)cc2)C(=O)N1` (single isomer, unassigned) [EXAMPLE 2 Isomer 2], the IC50 was below 100 nM and the inhibition at 0.1 µM came out at 96.2%.

For the molecule `C[C@@H](c1ccc(Br)cc1)N1CCC[C@@](CCO)(c2ccccc2)NC1=O` (single isomer, unassigned) [EXAMPLE 3 Isomer 1], the “Average % inhibition at 100 nM” value was determined as 85.8% and the IC50 was below 100 nM.

As to `C[C@@H](c1ccc(Br)cc1)N1CCC[C@](CCO)(c2ccccc2)NC1=O` (single isomer, unassigned) [EXAMPLE 3 Isomer 2], the IC50 was below 100 nM and the inhibition at 0.1 µM was determined as 97.6%.

With `C=C(C)C[C@]1(c2ccccc2)CCCN([C@@H](C)c2ccc(Br)cc2)C(=O)O1` (single isomer, unassigned) [EXAMPLE 14 Isomer 1], the IC50 was below 100 nM and the inhibition at 0.1 µM stood at 97.4%.

`C=C(C)C[C@@]1(c2ccccc2)CCCN([C@@H](C)c2ccc(Br)cc2)C(=O)O1` (single isomer, unassigned) [EXAMPLE 14 Isomer 2]: the IC50 was below 100 nM and the inhibition at 0.1 µM came to 111%.

On to `C[C@@H](c1ccc(Br)cc1)N1CCC[C@](CC(C)(C)O)(c2ccccc2)OC1=O` (single isomer, unassigned) [EXAMPLE 15 Isomer 1], for which the IC50 is below 100 nM and the inhibition at 0.1 µM stood at 86.2%.

As for `C[C@@H](c1ccc(Br)cc1)N1CCC[C@@](CC(C)(C)O)(c2ccccc2)OC1=O` (single isomer, unassigned) [EXAMPLE 15 Isomer 2], the half-inhibitory concentration (IC50) was above 100 nM and the inhibition at 0.1 µM came to 31.7%.

Regarding `C[C@@H](c1ccc(O)cc1)N1CCCC(CC(C)(C)O)(c2ccccc2)OC1=O` (single isomer, unassigned) [EXAMPLE 17 Isomer 1], the “Average % inhibition at 100 nM” value was determined as 41.6% and the IC50 is above 100 nM.

Consider `C[C@@H](c1ccc(O)cc1)N1CCCC(CC(C)(C)O)(c2ccccc2)OC1=O` (single isomer, unassigned) [EXAMPLE 17 Isomer 2], for which the “Average % inhibition at 100 nM” value is 68.5% and the concentration for half-maximal inhibition (IC50) is below 100 nM.

In the case of `C[C@@H](c1ccc(Br)cc1)N1CCC[C@](CCCO)(c2ccccc2)NC1=O` [EXAMPLE 1, (S)-1-((S)-1-(4-bromophenyl)ethyl)-4-(3-hydroxypropyl)-4-phenyl-1,3-diazepan-2-one], the IC50 is below 100 nM and the inhibition at 0.1 µM stood at 95.6%.

Take `CC(O)C[C@]1(c2ccccc2)CCCN([C@@H](C)c2ccc(Br)cc2)C(=O)N1` (stereo partly drawn) [EXAMPLE 4, (4S)-1-((S)-1-(4-bromophenyl)ethyl)-4-(2-hydroxypropyl)-4-phenyl-1,3-diazepan-2-one]: the IC50 was below 100 nM and the inhibition at 0.1 µM was found to be 95.8%.

Turning to `C[C@@H](c1ccc(Br)cc1)N1CCC[C@](CCC(N)=O)(c2ccccc2)NC1=O` [EXAMPLE 5, 3-((S)-1-((S)-1-(4-bromophenyl)ethyl)-2-oxo-4-phenyl-1,3-diazepan-4-yl)propanamide], the IC50 was below 100 nM and the inhibition at 0.1 µM came out at 93.7%.

With `COc1ccc(-c2ccc([C@H](C)N3CCC[C@](CCO)(c4ccccc4)NC3=O)cc2)cn1` [EXAMPLE 6, (S)-4-(2-hydroxyethyl)-1-((S)-1-(4-(6-methoxypyridin-3-yl)phenyl)ethyl)-4-phenyl-1,3-diazepan-2-one], the IC50 is below 100 nM and the inhibition at 0.1 µM is 95.5%.

For the molecule `C=C(C)C[C@]1(c2ccccc2)CCCN([C@@H](C)c2ccc(Br)cc2)C(=O)N1` [EXAMPLE 7, (S)-1-((S)-1-(4-bromophenyl)ethyl)-4-(2-methylallyl)-4-phenyl-1,3-diazepan-2-one], the IC50 is below 100 nM and the inhibition at 0.1 µM amounted to 93%.

Regarding `C[C@@H](c1ccc(Br)cc1)N1CCC[C@](CC(C)(C)O)(c2ccccc2)NC1=O` [EXAMPLE 8, (S)-1-((S)-1-(4-bromophenyl)ethyl)-4-(2-hydroxy-2-methylpropyl)-4-phenyl-1,3-diazepan-2-one], the IC50 was below 100 nM and the inhibition at 0.1 µM was 97.5%.

In the case of `C=C(C)C[C@]1(c2ccccc2)CCCN([C@@H](C)c2ccc(-c3ccn(C)c(=O)c3)cc2)C(=O)N1` [EXAMPLE 9, (S)-1-((S)-1-(4-(1-methyl-2-oxo-1,2-dihydropyridin-4-yl)phenyl)ethyl)-4-(2-methylallyl)-4-phenyl-1,3-diazepan-2-one], the IC50 was below 100 nM and the inhibition at 0.1 µM turned out to be 95.2%.

For the molecule `C=C(C)C[C@]1(c2ccccc2)CCCN([C@@H](C)c2ccc(-c3ccc(=O)n(C)c3)cc2)C(=O)N1` [EXAMPLE 10, (S)-1-((S)-1-(4-(1-methyl-6-oxo-1,6-dihydropyridin-3-yl)phenyl)ethyl)-4-(2-methylallyl)-4-phenyl-1,3-diazepan-2-one], the IC50 is below 100 nM and the inhibition at 0.1 µM came to 97.1%.

Regarding `C[C@@H](c1ccc(-c2ccn(C)c(=O)c2)cc1)N1CCC[C@](CC(C)(C)O)(c2ccccc2)NC1=O` [EXAMPLE 11, (S)-4-(2-hydroxy-2-methylpropyl)-1-((S)-1-(4-(1-methyl-2-oxo-1,2-dihydropyridin-4-yl)phenyl)ethyl)-4-phenyl-1,3-diazepan-2-one], the IC50 was below 100 nM and the inhibition at 0.1 µM stood at 98.3%.

Turning to `C[C@@H](c1ccc(-c2ccc(=O)n(C)c2)cc1)N1CCC[C@](CC(C)(C)O)(c2ccccc2)NC1=O` [EXAMPLE 12, (S)-4-(2-hydroxy-2-methylpropyl)-1-((S)-1-(4-(1-methyl-6-oxo-1,6-dihydropyridin-3-yl)phenyl)ethyl)-4-phenyl-1,3-diazepan-2-one], the IC50 is below 100 nM and the inhibition at 0.1 µM stood at 92.9%.

Regarding `C[C@@H](c1ccc(-c2ccn(C3CC3)c(=O)c2)cc1)N1CCC[C@](CC(C)(C)O)(c2ccccc2)NC1=O` [EXAMPLE 13, (S)-1-((S)-1-(4-(1-cyclopropyl-2-oxo-1,2-dihydropyridin-4-yl)phenyl)ethyl)-4-(2-hydroxy-2-methylpropyl)-4-phenyl-1,3-diazepan-2-one], the IC50 is below 100 nM and the inhibition at 0.1 µM is 94.2%.

Regarding `C[C@@H](c1ccc(-c2ccn(C3CC3)c(=O)c2)cc1)N1CCC[C@](CC(C)(C)O)(c2ccccc2)OC1=O` [EXAMPLE 18, (S)-3-((S)-1-(4-(1-cyclopropyl-2-oxo-1,2-dihydropyridin-4-yl)phenyl)ethyl)-7-(2-hydroxy-2-methylpropyl)-7-phenyl-1,3-oxazepan-2-one], the IC50 is below 100 nM and the inhibition at 0.1 µM was determined as 86.8%.

On to `C[C@@H](c1ccc(-c2ccn(C)c(=O)c2)cc1)N1CCC[C@](CC(C)(C)O)(c2ccccc2)OC1=O` [EXAMPLE 19, (S)-7-(2-hydroxy-2-methylpropyl)-3-((S)-1-(4-(1-methyl-2-oxo-1,2-dihydropyridin-4-yl)phenyl)ethyl)-7-phenyl-1,3-oxazepan-2-one], for which the IC50 is below 100 nM and the inhibition at 0.1 µM was determined as 80.3%.

As for `C[C@@H](c1ccc(-c2ccc(=O)n(C3CC3)c2)cc1)N1CCC[C@](CC(C)(C)O)(c2ccccc2)NC1=O` [EXAMPLE 20, (S)-1-((S)-1-(4-(1-cyclopropyl-6-oxo-1,6-dihydropyridin-3-yl)phenyl)ethyl)-4-(2-hydroxy-2-methylpropyl)-4-phenyl-1,3-diazepan-2-one], the IC50 is below 100 nM and the inhibition at 0.1 µM turned out to be 97.4%.
